From patent publication US8952024B2, “Herbicidal pyrimidone derivatives” (E I du Pont de Nemours and Company, priority 2009, dated 2015)

Assays:
Assay type in all cases: in vivo
[1] = system: velvetleaf (Abutilon theophrasti); test: Test B pre-/postemergence plant response
Summary of the method: (§1)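 Steps: sow seed in loam–sand soil and spray preemergence, or grow plants in peat-based medium to 1–4 leaves (2–18 cm) and spray postemergence; formulation is non-phytotoxic solvent plus surfactant; hold in greenhouse 13–15 days; score visually vs controls, 0 = no effect, 100 = complete control.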

[2] = system: woolly cupgrass (Eriochloa villosa); test: Test B pre-/postemergence plant response
Summary of the method: as §1

[3] = system: ragweed (common ragweed, Ambrosia elatior); test: Test B pre-/postemergence plant response
Summary of the method: as §1

[4] = system: johnsongrass (Sorghum halepense); test: Test B pre-/postemergence plant response
Summary of the method: as §1

[5] = system: blackgrass (Alopecurus myosuroides); test: Test B pre-/postemergence plant response
Summary of the method: as §1

soybean (Glycine max) = test: Test B pre-/postemergence plant response
Summary of the method: as §1

[6] = system: bermudagrass (Cynodon dactylon); test: Test B pre-/postemergence plant response
Summary of the method: as §1

[7] = system: yellow nutsedge (Cyperus esculentus); test: Test B pre-/postemergence plant response
Summary of the method: as §1

corn (Zea mays) = test: Test B pre-/postemergence plant response
Summary of the method: as §1

[8] = system: large crabgrass (Digitaria sanguinalis); test: Test B pre-/postemergence plant response
Summary of the method: as §1

[9] = system: Surinam grass (Brachiaria decumbens); test: Test B pre-/postemergence plant response
Summary of the method: as §1

wild oat (Avena fatua) = test: Test B pre-/postemergence plant response
Summary of the method: as §1

[10] = system: lambsquarters (Chenopodium album); test: Test B pre-/postemergence plant response
Summary of the method: as §1

[11] = system: Italian ryegrass (Lolium multiflorum); test: Test B pre-/postemergence plant response
Summary of the method: as §1

[12] = system: windgrass (Apera spica-venti); test: Test B postemergence plant response; settings: Postemergence
Summary of the method: (§2)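 Plants at the 1- to 4-leaf stage (2 to 18 cm tall), grown in pots of peat moss/vermiculite medium with wetting agent and starter nutrients, received postemergence applications of test chemicals. After 13 to 15 days in a greenhouse, injury was rated visually against untreated controls on a 0 (no effect) to 100 (complete control) scale.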

[13] = system: winter barley (Hordeum vulgare); test: Test B postemergence plant response; settings: Postemergence
Summary of the method: as §2

[14] = system: chickweed (Stellaria media); test: Test B postemergence plant response; settings: Postemergence
Summary of the method: as §2

[15] = system: canarygrass (Phalaris minor); test: Test B postemergence plant response; settings: Postemergence
Summary of the method: as §2

[16] = Postemergence, 31 g ai/ha, 0 to 100 scale (0 no effect, 100 complete control)
[17] = Postemergence, 250 g ai/ha, scale 0 to 100 (0 no effect, 100 complete control), 13 to 15 days
[18] = Postemergence, 62 g ai/ha, scale 0 to 100 (0 no effect, 100 complete control)
[19] = Preemergence, 31 g ai/ha, scale 0 to 100 (0 no effect, 100 complete control)
[20] = Preemergence, 62 g ai/ha, scale 0 to 100, 0 no effect, 100 complete control
[21] = Preemergence, 125 g ai/ha, scale 0 to 100, 0 no effect, 100 complete control
[22] = Preemergence, 250 g ai/ha, 0 to 100 scale
[23] = Postemergence, 125 g ai/ha, scale 0 to 100 (0 no effect, 100 complete control)
[24] = 31 g ai/ha, 0 to 100 scale (0 no effect, 100 complete control)
[25] = 250 g ai/ha, scale 0 to 100 (0 no effect, 100 complete control), 13 to 15 days
[26] = 62 g ai/ha, scale 0 to 100 (0 no effect, 100 complete control)
[27] = 125 g ai/ha, scale 0 to 100 (0 no effect, 100 complete control)

In the case of CCc1cccc(-n2c(-c3ccccc3)ncc(C(=O)C3=C(O)CCCC3=O)c2=O)c1 [Compound 220], the “Plant response rating, Velvetleaf” value [1, 16] is reported as 80, the “Plant response rating, Velvetleaf” value [1, 17] is reported as 100 and the “Plant response rating, Velvetleaf” value [1, 18] is reported as 90. The “Plant response rating, Velvetleaf” value [1, 19] was 45, the “Plant response rating, Velvetleaf” value [1, 20] was 70 and the “Plant response rating, Velvetleaf” value [1, 21] was 90. The “Velvetleaf plant response rating” value [1, 22] was 100, the “Plant response rating, Cupgrass, Woolly” value [2, 16] was 60 and the “Plant response rating, Cupgrass, Woolly” value [2, 23] was 65. For the same molecule, the “Plant response rating, Cupgrass, Woolly” value [2, 17] was 65, the “Plant response rating, Cupgrass, Woolly” value [2, 18] was 60 and the “Plant response rating, Cupgrass, Woolly” value [2, 19] was 0. The “Plant response rating, Cupgrass, Woolly” value [2, 20] was 0, the “Plant response rating, Cupgrass, Woolly” value [2, 21] was 10 and the “Cupgrass, Woolly plant response rating” value [2, 22] was 25. For the same molecule, the “Plant response rating, Ragweed” value [3, 16] was 90, the “Plant response rating, Ragweed” value [3, 17] was 98 and the “Plant response rating, Ragweed” value [3, 18] was 95. For the same molecule, the “Plant response rating, Ragweed” value [3, 19] was 15, the “Plant response rating, Ragweed” value [3, 20] was 60 and the “Plant response rating, Ragweed” value [3, 21] was 80. The “Ragweed plant response rating” value [3, 22] was 95, the “Plant response rating, Johnsongrass” value [4, 16] was 60 and the “Plant response rating, Johnsongrass” value [4, 23] was 80. For the same molecule, the “Plant response rating, Johnsongrass” value [4, 17] was 90, the “Plant response rating, Johnsongrass” value [4, 18] was 65 and the “Plant response rating, Johnsongrass” value [4, 19] was 0. For the same molecule, the “Plant response rating, Johnsongrass” value [4, 20] was 0, the “Plant response rating, Johnsongrass” value [4, 21] was 0 and the “Johnsongrass plant response rating” value [4, 22] was 80. For the same molecule, the “Plant response rating, Blackgrass” value [5, 16] was 10, the “Plant response rating, Blackgrass” value [5, 23] was 30 and the “Plant response rating, Blackgrass” value [5, 17] was 40. For the same molecule, the “Plant response rating, Blackgrass” value [5, 18] was 20, the “Plant response rating, Blackgrass” value [5, 19] was 10 and the “Plant response rating, Blackgrass” value [5, 20] was 20. The “Plant response rating, Blackgrass” value [5, 21] was 20, the “Blackgrass plant response rating” value [5, 22] was 35 and the “Plant response rating, Soybean” value (soybean (Glycine max); [16]) was 80. The “Plant response rating, Soybean” value (soybean (Glycine max); [17]) was 100, the “Plant response rating, Soybean” value (soybean (Glycine max); [18]) was 85 and the “Plant response rating, Soybean” value (soybean (Glycine max); [20]) was 0. The “Plant response rating, Soybean” value (soybean (Glycine max); [21]) was 0, the “Soybean plant response rating” value (soybean (Glycine max); [22]) was 75 and the “Plant response rating, Bermudagrass” value [6, 16] was 80. For the same molecule, the “Plant response rating, Bermudagrass” value [6, 23] was 98, the “Plant response rating, Bermudagrass” value [6, 17] was 100 and the “Plant response rating, Bermudagrass” value [6, 18] was 95. The “Plant response rating, Bermudagrass” value [6, 19] was 80, the “Plant response rating, Bermudagrass” value [6, 20] was 98 and the “Plant response rating, Bermudagrass” value [6, 21] was 98. The “Bermudagrass plant response rating” value ([6]; Preemergence, 250 g ai/ha, 0 to 100 scale, 0 no effect, 100 complete control) was 100, the “Plant response rating, Nutsedge, Yellow” value [7, 16] was 10 and the “Plant response rating, Nutsedge, Yellow” value [7, 23] was 25. For the same molecule, the “Plant response rating, Nutsedge, Yellow” value [7, 17] was 55, the “Plant response rating, Nutsedge, Yellow” value [7, 18] was 25 and the “Plant response rating, Nutsedge, Yellow” value [7, 19] was 0. For the same molecule, the “Plant response rating, Nutsedge, Yellow” value [7, 20] was 0, the “Plant response rating, Nutsedge, Yellow” value [7, 21] was 60 and the “Nutsedge, Yellow plant response rating” value [7, 22] was 90. For the same molecule, the “Plant response rating, Corn” value (corn (Zea mays); [16]) was 25, the “Plant response rating, Corn” value (corn (Zea mays); [23]) was 55 and the “Plant response rating, Corn” value (corn (Zea mays); [17]) was 75. For the same molecule, the “Plant response rating, Corn” value (corn (Zea mays); [18]) was 50, the “Plant response rating, Corn” value (corn (Zea mays); [19]) was 0 and the “Plant response rating, Corn” value (corn (Zea mays); [20]) was 0. For the same molecule, the “Plant response rating, Corn” value (corn (Zea mays); [21]) was 0, the “Corn plant response rating” value (corn (Zea mays); [22]) was 0 and the “Plant response rating, Crabgrass, Large” value [8, 16] was 70. The “Plant response rating, Crabgrass, Large” value [8, 23] was 85, the “Plant response rating, Crabgrass, Large” value [8, 17] was 90 and the “Plant response rating, Crabgrass, Large” value [8, 18] was 75. For the same molecule, the “Plant response rating, Crabgrass, Large” value [8, 19] was 0, the “Plant response rating, Crabgrass, Large” value [8, 20] was 75 and the “Plant response rating, Crabgrass, Large” value [8, 21] was 80. For the same molecule, the “Crabgrass, Large plant response rating” value [8, 22] was 100, the “Plant response rating, Surinam Grass” value [9, 16] was 50 and the “Plant response rating, Surinam Grass” value [9, 17] was 75. For the same molecule, the “Plant response rating, Surinam Grass” value [9, 18] was 60, the “Plant response rating, Surinam Grass” value [9, 19] was 10 and the “Plant response rating, Surinam Grass” value [9, 20] was 20. For the same molecule, the “Plant response rating, Surinam Grass” value [9, 21] was 45, the “Surinam Grass plant response rating” value [9, 22] was 65 and the “Plant response rating, Oat, Wild” value (wild oat (Avena fatua); [16]) was 10. The “Plant response rating, Oat, Wild” value (wild oat (Avena fatua); [17]) was 50, the “Plant response rating, Oat, Wild” value (wild oat (Avena fatua); [18]) was 20 and the “Plant response rating, Oat, Wild” value (wild oat (Avena fatua); [20]) was 0. For the same molecule, the “Plant response rating, Oat, Wild” value (wild oat (Avena fatua); [21]) was 0, the “Oat, Wild plant response rating” value (wild oat (Avena fatua); [22]) was 60 and the “Plant response rating, Lambsquarters” value [10, 16] was 100. For the same molecule, the “Plant response rating, Lambsquarters” value [10, 23] was 100, the “Plant response rating, Lambsquarters” value [10, 17] was 100 and the “Plant response rating, Lambsquarters” value [10, 18] was 100. For the same molecule, the “Plant response rating, Lambsquarters” value [10, 19] was 100, the “Plant response rating, Lambsquarters” value [10, 20] was 100 and the “Plant response rating, Lambsquarters” value [10, 21] was 100. For the same molecule, the “Lambsquarters plant response rating” value [10, 22] was 100, the “Plant response rating, Ryegrass, Italian” value [11, 16] was 5 and the “Plant response rating, Ryegrass, Italian” value [11, 17] was 60. For the same molecule, the “Plant response rating, Ryegrass, Italian” value [11, 18] was 5, the “Plant response rating, Ryegrass, Italian” value [11, 19] was 0 and the “Plant response rating, Ryegrass, Italian” value [11, 20] was 0. The “Plant response rating, Ryegrass, Italian” value [11, 21] was 0, the “Ryegrass, Italian plant response rating” value [11, 22] was 0 and the “Plant response rating, Windgrass” value [12, 24] was 5. The “Plant response rating, Windgrass” value [12, 25] was 60, the “Plant response rating, Windgrass” value [12, 26] was 40 and the “Plant response rating, Barley” value [13, 24] was 10. The “Plant response rating, Barley” value [13, 27] was 10, the “Plant response rating, Barley” value [13, 25] was 15 and the “Plant response rating, Barley” value [13, 26] was 10. The “Plant response rating, Chickweed” value [14, 24] was 95, the “Plant response rating, Chickweed” value [14, 27] was 98 and the “Plant response rating, Chickweed” value [14, 25] was 100. The “Plant response rating, Chickweed” value [14, 26] was 95, the “Plant response rating, Canarygrass” value [15, 24] was 10 and the “Plant response rating, Canarygrass” value [15, 27] was 10. The “Plant response rating, Canarygrass” value [15, 25] was 30 and the “Plant response rating, Canarygrass” value [15, 26] was 10.
